Experiments:
Caci_0382 [1] = target: T1, Caci_0382 (Catenulispora acidiphila, UniProt C7PVH9); assay: fluorescence thermal shift (Sypro Orange); format: binding; conditions: 20 mM Hepes pH 7.5, 150 mM NaCl; 14 μM protein; printed as Tm but evidently the Tm shift; unit and concentration not given; in °C (unit assumed)
T1 construct: homodimer
T1 sequence (C7PVH9 1-134): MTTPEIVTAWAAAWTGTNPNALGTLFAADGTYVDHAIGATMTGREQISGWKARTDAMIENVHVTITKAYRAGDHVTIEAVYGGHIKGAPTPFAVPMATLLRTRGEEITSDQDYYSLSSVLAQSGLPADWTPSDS

Caci_0382 [2] = target: T1, Caci_0382; assay: fluorescence thermal shift (Sypro Orange); format: binding; conditions: read-out: Tm shift at 0.1 mM
[3] = target: the molecule itself; assay: SEC; gel-filtration chromatography, data not shown

## c1c[nH]cn1 [Imidazole]
Caci_0382 [1]
  Tm: 10.26

## CN(C)C [TMA, trimethylamine]
Caci_0382 [2]
  ΔTm at 100 µM: 3 °C

B1: Caci_0382 from Catenulispora acidiphila DSM 44928 (natural protein)
chain: T1 sequence (C7PVH9 1-134)
modifications: selenomethionine-labeled
notes: Caci_0382, hypothetical protein of the NTF2-like family, Catenulispora acidiphila DSM 44928; the gene encodes a 134 amino-acid protein of 14.3 kDa; Subcloned in the pMCSG57 vector, which adds a 6 His-Tag at the N-terminus; 131 Calpha atoms per subunit were aligned between the two crystal forms; also called hypothetical protein Caci_0382
[3]
  stoichiometry N: 2

Source: paper PMC3955178, “Structural characterization of a hypothetical protein: a potential agent involved in trimethylamine metabolism in Catenulispora acidiphila” (Journal of Structural and Functional Genomics, 2014)
